Assay results published in patent publication EP0069448A1, “Fungicidal amide derivatives” (IMPERIAL CHEMICAL INDUSTRIES PLC, priority 1981, dated 1983).

Assays:
Format in all cases: in vivo
[1] = test system: Candida albicans and Trichophyton mentagrophytes var. quinkeanum; test: Oral antifungal test in oestradiol-treated female mice inoculated vaginally and on the back; conditions: 168 h, oral dosing twice on day 0 and once daily on days 1-4, skin lesions scored and vaginal samples cultured on day 7, read-out: minimum effective dose (MED)
Experimental: The following Monday (day 0) they are clipped on the back and then dosed orally with test compounds. They are then inoculated with Candida albicans in the vagina and Trichophyton mentagrophytes var. quinkeanum on the back, and then given a second dose of the same compound. Dosing is repeated once daily on days 1-4. On day 7 skin lesions are scored visually and vaginal samples taken for culture on agar. Groups of 5 mice are used and compounds are dosed initially at a level of 250mg./kg. The dose is then reduced sequentially until a minimum effective dose (MED) is found. The MED for 2,2-bis(4-chlorophenyl)-3-(1,2,4-triazol-1-yl)propionamide in this test was 5mg. per kg.

[2] = test system: CERCOSPORA ARACHIDICOLA (PEANUT); test: Foliar fungal disease test on plants (spray and root drench); conditions: 100 ppm active ingredient spray, root drench approximately 40 ppm a.i./dry soil; applied one or two days before inoculation
Experimental: (§1) The compound of Example 1 was tested against a variety of foliar fungal diseases of plants. The technique employed was as follows:- The plants were grown in John Innes Potting Compost (No. 1 or 2) in 4 cm diameter minipots. A layer of fine sand was placed at the bottom of the pots containing the dicotyledonous plants to facilitate uptake of test compound by the roots. The test compound was formulated either by bead milling with aqueous Dispersol T or as a solution of acetone or acetone/ethanol which was diluted to the required concentration immediately before use. For the foliage diseases, suspensions (100 ppm active ingredient) were sprayed on to the […]. Exceptions to this were the tests on Botrytis cinerea, Plasmopara viticola and venturia inaequalis. The sprays were applied to maximum retention and the root drenches to a final concentration equivalent to approximately 40 ppm a.i./dry soil. Tween 20, to give a final concentration of 0.05%, was added when the sprays were applied to cereals. For most of the tests the compound was applied to the soil (roots) and the foliage (by spraying) one or two days before the plant was inoculated with the diseases. An exception was the test on Erysiphe graminis in which the plants were inoculated 24 hours before treatment. After inoculation, the plants were put into an appropriate environment to allow infection to take place and The disease control was recorded by the following grading:- [table]

[3] = test system: PUCCINIA RECONDITA (WHEAT); test: as above; conditions: 100 ppm active ingredient spray, root drench approximately 40 ppm a.i./dry soil; applied one or two days before inoculation
Experimental: as §1

[4] = test system: VENTURIA INAEQUALIS (APPLE); test: as above; conditions: 100 ppm active ingredient; Venturia inaequalis named as an exception to the combined spray and soil application; applied one or two days before inoculation
Experimental: as §1

[5] = test system: ERYSIPHE GRAMINIS (BARLEY); test: as above; conditions: 100 ppm active ingredient spray, root drench approximately 40 ppm a.i./dry soil; plants inoculated 24 hours before treatment
Experimental: as §1

NC(=O)C(Cn1cncn1)(c1ccc(Cl)cc1)c1ccc(Cl)cc1 [Example 1, 2,2-bis(4-chlorophenyl)-3-(1,2,4-triazol-1-yl)propionamide]
minimal effective dose [1]: 5 mg/kg | disease control grading, CERCOSPORA ARACHIDICOLA (PEANUT) [2]: 2 | disease control grading, PUCCINIA RECONDITA (WHEAT) [3]: 1 | disease control grading, VENTURIA INAEQUALIS (APPLE) [4]: 3 | disease control grading, ERYSIPHE GRAMINIS (BARLEY) [5]: 4
